According to US20170174734A1, “DR6 Receptor Mediates the Leukemia Differentiation Activity of Angiocidin: A Potent Anti-Tumor Peptide” (Temple University-Of The Commonwealth System of Higher …, priority 2014, published 2017):

What was measured:
THP-1 cells [1] = test: Binding of Alexa Fluor 488 labeled angiocidin to THP-1 cells, flow cytometry
Method: Experiments were performed to evaluate the interaction between DR-6 and angiocidin. […] Briefly, THP-1 cells were plated in 6 well dishes in serum-free media. Cells were untreated or treated for 30 min at 37° with either 2.5 μg/ml of Angiocidin labeled with Alexa Fluor 488 (Angio-488), Angio-448+10 μg/ml control rabbit IgG, Angio-488+10 μg/ml rabbit Anti-DR6 IgG, Angio-488+10 μg/ml unlabeled Angiocidin. Cells were washed twice in PBS and the percent positive Angio-488 measured by flow cytometry.

[2] = molecular target: T1, DR6 extracellular domain-FC chimera (Homo sapiens, UniProt O75509); test: ELISA binding of biotinylated angiocidin to plate-coated DR6 extracellular-Fc chimeric recombinant protein; conditions: for Blocking of binding of biotinylated angiocidin to DR6: 1 μg/ml biotinylated angiocidin, 50 μg/ml 5 mer, 10 μg/ml anti-DR6 IgG or 50 μg/ml unlabeled angiocidin
T1 construct: wells of a microtiter plate were coated with 100 ng of a DR6 extracellular-Fc chimeric recombinant protein overnight
T1 sequence (O75509 42-349 limits assumed): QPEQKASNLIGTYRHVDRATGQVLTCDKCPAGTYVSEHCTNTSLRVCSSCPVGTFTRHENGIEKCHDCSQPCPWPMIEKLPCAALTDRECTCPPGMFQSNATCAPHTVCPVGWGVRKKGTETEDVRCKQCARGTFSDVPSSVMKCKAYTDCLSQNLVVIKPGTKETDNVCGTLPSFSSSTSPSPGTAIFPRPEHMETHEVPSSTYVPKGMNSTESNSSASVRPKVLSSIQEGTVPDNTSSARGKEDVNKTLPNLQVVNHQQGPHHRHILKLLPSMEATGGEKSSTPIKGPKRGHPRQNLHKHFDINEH
Method: (§1) The next experiment was performed to characterize the binding of DR6 with angiocidin. Briefly, wells of a microtiter plate were coated with 100 ng of a DR6 extracellular-Fc chimeric recombinant protein overnight. Wells were then washed in PBS and blocked with 1% BSA. Blocked wells were incubated with shaking with 200 μl of PBS containing various concentrations of biotinylated angiocidin for one hour. Wells were than washed and incubated with shaking with a 1:10,000 dilution of a 1 mg/ml solution of streptavidin-HRP in PBS. Wells were washed 3 times in PBS and bound streptavidin HRP was detected by incubation of the wells with 100 μl of 3,3′,5,5′-tetramethylbenzidine (TMB) with shaking for 5 min. Reactions were stopped by the addition of 50 μl of 1 M HCl and the color read in an ELISA reader at 450 nm.
(§2) The next experiment was performed to further characterize the binding between DR6 and angiocidin. It was observed that the binding of angiocidin to DR6 was blocked with anti-DR6 IgG, 5 mer peptide, and unlabeled angiocidin. Wells contained either 1 μg/ml of biotinylated angiocidin alone or 50 μg/ml 5 mer, 10 μg/ml of anti-DR6 IgG or 50 μg/ml unlabeled angiocidin.

[3] = molecular target: T2, DR6 in whole extracts of THP-1 cells (Homo sapiens, UniProt O75509); test: Blot overlay of biotinylated angiocidin on SDS extracts of THP-1 cells; type: binding; conditions: 0.1 mg/ml biotinylated angiocidin, one hour
T2 construct: SDS detergent extracts of THP-1 cells were separated on SDS-PAGE and blotted onto PVD membranes; endogenous in cells; host or cells: THP-1 cells
T2 sequence (O75509 42-655): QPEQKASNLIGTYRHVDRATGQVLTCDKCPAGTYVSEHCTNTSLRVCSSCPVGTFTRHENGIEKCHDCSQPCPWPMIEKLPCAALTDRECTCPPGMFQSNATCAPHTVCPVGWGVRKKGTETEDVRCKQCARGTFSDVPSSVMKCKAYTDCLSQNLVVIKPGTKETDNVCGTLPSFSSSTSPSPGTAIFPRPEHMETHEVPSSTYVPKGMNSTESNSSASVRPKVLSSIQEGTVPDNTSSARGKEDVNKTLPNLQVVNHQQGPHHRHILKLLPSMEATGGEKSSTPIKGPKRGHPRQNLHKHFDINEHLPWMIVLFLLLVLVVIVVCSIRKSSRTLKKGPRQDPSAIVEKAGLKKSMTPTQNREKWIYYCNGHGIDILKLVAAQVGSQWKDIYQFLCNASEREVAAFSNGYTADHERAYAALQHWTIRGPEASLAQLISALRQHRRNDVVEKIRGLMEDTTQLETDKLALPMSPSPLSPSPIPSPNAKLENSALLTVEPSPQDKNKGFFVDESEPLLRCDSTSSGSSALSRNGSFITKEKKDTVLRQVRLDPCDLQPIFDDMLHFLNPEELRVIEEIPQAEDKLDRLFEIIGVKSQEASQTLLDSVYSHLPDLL
Method: Briefly, SDS detergent extracts of THP-1 cells were separated on SDS-PAGE and blotted onto PVD membranes. Membranes were washed in tris-buffered saline containing 0.1% Tween 20 detergent (TBS-T) and 1% BSA and incubated with 0.1 mg/ml of biotinylated angiocidin in the presence or absence of 10 μg/ml rabbit Anti-DR6 antibody. After incubation for one hour membranes were washed in TBS-T and incubated with 1:10,000 dilution of a 1 mg/ml solution of streptavidin HRP in PBS for 30 min. Membranes were then washed, treated with a chemiluminescent substrate for HRP and developed for chemiluminescence using X-ray film. In the panel on the right, recombinant DR6-Fc was used as the positive control.

THP-1 cells [4] = test: Differentiation marker expression (CD14, CD54, CD36) in THP-1 cells, flow cytometry; type: cell-based; conditions: for Leukemia cell differentiating activity, comparison of 5 mer, 20 mer and angiocidin / Upregulation of CD54 in THP-1 leukemia cells: FIGS. 8-11; for Upregulation of CD54 in THP-1 cells: after 24 hours incubation, FIG. 8
Method: FIG. 10 is an image showing the comparison between angiocidin, the 5 mer, and a 20 mer (F86-H105) […]; SEQ ID NO: 2 on the expression of CD14 and CD54. Briefly, THP-1 cells were grown in the presence of various concentrations of peptide overnight and then the cells were assayed by flow cytometry for expression of CD14 and CD54.
FIG. 11 is an image showing the comparison between the 20 mer, 5 mer and angiocidin on the expression of CD14 and CD54 up-regulation in THP-1 cells and two primary leukemia cells. Cells were treated with peptide at 10 ug/ml for 12 hours and CD14 and CD54 were measured by flow cytometry.
THP-1 cells were cultured in RPMI media for 24 hours containing no peptides or angiocidin or 2, 10 μg/ml of either angiocidin, 5 mer, peptide or a control peptide, r5 mer having the reverse sequence of the 5 mer. Marker expression was measured by flow cytometry.

[5] = tested on: three different leukemia cell lines; test: Cytokine upregulation in three leukemia cell lines; type: cell-based
Method: Experiments were also performed comparing the leukemia cell differentiating activity of the 5 mer, the 20 mer and angiocidin.

death receptor-6 (DR6) = molecular target: T3, death receptor-6 (DR6) (Homo sapiens, UniProt O75509); test: Binding strength of DR6 for angiocidin compared with previously reported binding proteins
T3 sequence (O75509 42-655): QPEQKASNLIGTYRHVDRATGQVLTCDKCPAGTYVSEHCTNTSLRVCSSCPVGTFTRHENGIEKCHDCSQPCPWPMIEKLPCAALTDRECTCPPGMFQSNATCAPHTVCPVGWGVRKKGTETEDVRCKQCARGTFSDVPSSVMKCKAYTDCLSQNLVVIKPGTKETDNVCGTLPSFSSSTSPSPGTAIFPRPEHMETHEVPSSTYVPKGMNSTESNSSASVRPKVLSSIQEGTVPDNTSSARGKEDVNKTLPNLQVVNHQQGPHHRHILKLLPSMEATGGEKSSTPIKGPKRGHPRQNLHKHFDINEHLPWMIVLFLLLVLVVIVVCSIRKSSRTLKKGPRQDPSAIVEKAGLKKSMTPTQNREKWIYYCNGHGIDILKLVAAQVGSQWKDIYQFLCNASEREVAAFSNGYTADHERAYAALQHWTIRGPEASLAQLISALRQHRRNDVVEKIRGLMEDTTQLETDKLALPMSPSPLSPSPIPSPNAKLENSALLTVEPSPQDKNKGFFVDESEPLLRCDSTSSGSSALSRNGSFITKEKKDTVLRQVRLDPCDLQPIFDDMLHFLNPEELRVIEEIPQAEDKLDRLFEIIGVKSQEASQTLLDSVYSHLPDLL

THP-I leukemia cells = test: Blocking DR6 on THP-I leukemia cells: effect on the differentiating activity of angiocidin; type: cell-based; conditions: mediated by DR6
Source text: Additionally, the DR6 binding domain of angiocidin is located in a 5 amino acid sequence (ALKHR; SEQ ID NO: 1) present near the N-terminal domain of angiocidin. Accordingly, the 5 mer (ALKHR; SEQ ID NO: 1) is a potentially non-toxic alternative treatment of AML

[6] = molecular target: T4, DR6 extracellular-Fc chimeric recombinant protein (UniProt O75509 42-349, limits assumed); test: not stated (opening statement of Example 1)
T4 construct: extracellular domain; also called DR6 extracellular domain-FC chimera; DR6-Fc; not shown: Fc part
T4 sequence (looked up): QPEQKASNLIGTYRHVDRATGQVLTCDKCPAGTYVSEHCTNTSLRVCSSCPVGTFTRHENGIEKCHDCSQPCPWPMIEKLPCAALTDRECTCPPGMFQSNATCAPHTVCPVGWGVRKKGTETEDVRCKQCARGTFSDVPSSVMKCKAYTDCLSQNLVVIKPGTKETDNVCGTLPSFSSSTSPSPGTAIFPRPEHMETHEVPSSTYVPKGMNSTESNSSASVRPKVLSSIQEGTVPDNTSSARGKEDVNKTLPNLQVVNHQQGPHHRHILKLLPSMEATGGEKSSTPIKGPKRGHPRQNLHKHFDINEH

[7] = molecular target: T4, DR6 extracellular-Fc chimeric …; test: competition ELISA on coated DR6 extracellular domain-Fc, 50 ug/ml 5 mer against 1 ug/ml biotinylated angiocidin
Method: as §1, with “nm. It was observed that angiocidin binds the extracellular domain of DR6 (DR6 extracellular domain-FC chimera) in vitro (FIG. 2).” for “nm.”
as §2

## angiocidin: protein originally isolated from lung carcinoma, receptor for thrombospondin-1, inhibitor of angiogenesis and tumor cell proliferation
THP-1 cells [1]; 2.5 μg/ml Angio-488 plus 10 μg/ml competitor, 30 min at 37°, serum-free media
  Inhibition of binding of Angio-488 to THP-1 cells (percent positive Angio-488): competed with the binding of Angio-488
[2]; 100 ng DR6-Fc coated, various concentrations, one hour, read at 450 nm
  Binding of biotinylated angiocidin to the extracellular domain of DR6: binds the extracellular domain of DR6
[2]
  Blocking of binding of biotinylated angiocidin to DR6: blocked
[3]
  Binding of angiocidin to DR6 in whole extracts of THP-1 cells: binds to DR6 in whole extracts of THP-1 cells
THP-1 cells [4]
  Leukemia cell differentiating activity, comparison of 5 mer, 20 mer and angiocidin: nearly identical leukemia cell differentiating activities
  Upregulation of CD54 in THP-1 leukemia cells: upregulate CD54
  Upregulation of CD54 in THP-1 cells: upregulate CD54
[5]
  Upregulation of cytokine panel: upregulate a similar panel of cytokines
Death receptor-6 (DR6)
  Binding strength of DR6 for angiocidin relative to other reported binding proteins and peptides: more than 100 times
THP-I leukemia cells
  Differentiating activity on THP-I leukemia cells: transforms THP-I leukemia cells into normal macrophage-like cells

## Angio-488: Angiocidin labeled with Alexa Fluor 488 [reference compound]
THP-1 cells [1]; inferred from competition by unlabeled angiocidin
  Affinity for cell bound DR6 after labeling with Alexa Fluor 488: did not alter its affinity for cell bound DR6

## ALKHR [5 mer]
[2]
  Blocking of binding of biotinylated angiocidin to DR6: blocked
THP-1 cells [4]
  Leukemia cell differentiating activity, comparison of 5 mer, 20 mer and angiocidin: nearly identical leukemia cell differentiating activities
  Upregulation of CD54 in THP-1 leukemia cells: upregulate CD54
  Upregulation of CD54 in THP-1 cells: upregulate CD54
THP-1 cells [4]; THP-1 cells, RPMI, 24 hours, 2, 10 μg/ml
  Differentiation activity measured by upregulation of CD14, CD54, CD36: mimics the differentiation activity of angiocidin
[5]
  Upregulation of cytokine panel: upregulate a similar panel of cytokines

## FCTGIRVAHLALKHRQGKNH [20 mer, 20 mer peptide of the anti-tumor domain of angiocidin]
THP-1 cells [4]
  Leukemia cell differentiating activity, comparison of 5 mer, 20 mer and angiocidin: nearly identical leukemia cell differentiating activities
  Upregulation of CD54 in THP-1 leukemia cells: upregulate CD54
[5]
  Upregulation of cytokine panel: upregulate a similar panel of cytokines

B1: Angiocidin (ligand, UniProt P55036 1-377, looked up)
chain: MVLESTMVCVDNSEYMRNGDFLPTRLQAQQDAVNIVCHSKTRSNPENNVGLITLANDCEVLTTLTPDTGRILSKLHTVQPKGKITFCTGIRVAHLALKHRQGKNHKMRIIAFVGSPVEDNEKDLVKLAKRLKKEKVNVDIINFGEEEVNTEKLTAFVNTLNGKDGTGSHLVTVPPGPSLADALISSPILAGEGGAMLGLGASDFEFGVDPSADPELALALRVSMEEQRQRQEEEARRAAAASAAEAGIATTGTEDSDDALLKMTISQQEFGRTGLPDLSSMTEEEQIAYAMQMSLQGAEFGQAESADIDASSAMDTSEPAKEEDDYDVMQDPEFLQSVLENLPGVDPNNEAIRNAMGSLASQATKDGKKDKKEEDKK
modifications: Alexa Fluor 488 label (flow cytometry) or biotin label (ELISA, blot); sites not stated; also used unlabeled as competitor
notes: Labelled and unlabelled preparations are kept as one molecule
[6]
  fold stronger binding than the other binding proteins and peptides previously reported for angiocidin: > 100 times

B2: 5 mer (ALKHR peptide) (peptide)
peptide: ALKHR
notes: Five-residue peptide from angiocidin; also called Angio-pep; 5 mer peptide
[7]
  binding result: binds
